Measured values as given in US9023789B2, “Amylin analogs and pharmaceutical compositions thereof” (Novo Nordisk A/S, priority 2012, dated 2015).
Read-outs that look alike come from different tables or passages of the source. Numbered stars: 1 amine (or outer) side, 2 acyl side, 3 side chain; on linkers, the order of the positions; unused ones are H or OH. Bridge positions count the residues as written; N and C are the ends. Side chains are listed from the residue outwards. Peptide text beside a SMILES is read from it. * marks the point of attachment. C20 diacid = O=C(O)CCCCCCCCCCCCCCCCCCC(=O)*; γGlu = O=C(O)[C@H](CCC(=O)[*:2])N[*:1]; AEEA = NCCOCCOCC(=O)O

Key:
[1] = molecular target: T1, human amylin 3(a) receptor (human calcitonin receptor + RAMP-3) in BHK570 cells (Homo sapiens, UniProt O60896+P30988); assay: ASSAY (II)a functional assay, human amylin receptor (CRE luciferase); assay type: cell-based
T1 construct: expressed in transfected cells
In short: (§1)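 BHK cells stably carrying a CRE-luciferase reporter plus calcitonin receptor, or calcitonin receptor with RAMP-3 for the amylin 3(a) receptor, were seeded and kept overnight at 37° C. Compounds were added in assay medium with 10% FBS and 10 mM Hepes, pH 7.4, for 3 hours at 37° C, then luminescence was counted.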

[2] = molecular target: T2, human calcitonin (a) receptor in BHK570 cells (Homo sapiens, UniProt P30988); assay: ASSAY (II)a functional assay, human calcitonin receptor (CRE luciferase); assay type: cell-based; settings: read-out: hCTR funct. EC50
T2 construct: expressed in transfected cells
T2 sequence (P30988 25-474): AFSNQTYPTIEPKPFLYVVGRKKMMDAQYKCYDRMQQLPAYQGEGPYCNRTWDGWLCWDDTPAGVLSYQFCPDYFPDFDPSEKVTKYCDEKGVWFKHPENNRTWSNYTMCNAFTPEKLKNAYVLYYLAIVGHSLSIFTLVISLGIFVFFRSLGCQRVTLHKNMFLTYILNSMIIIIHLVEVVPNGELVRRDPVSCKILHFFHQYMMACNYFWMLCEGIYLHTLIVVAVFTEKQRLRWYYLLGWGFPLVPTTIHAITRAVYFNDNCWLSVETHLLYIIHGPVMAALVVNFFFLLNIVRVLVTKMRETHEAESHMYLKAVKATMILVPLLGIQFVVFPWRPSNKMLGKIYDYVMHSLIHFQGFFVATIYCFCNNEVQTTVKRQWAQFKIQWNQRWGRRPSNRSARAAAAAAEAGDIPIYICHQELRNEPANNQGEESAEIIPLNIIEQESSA
In short: as §1

[3] = ASSAY (IV) determination of solubility; assay type: physicochemical
In short: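 Polypeptide stock in water ([…]) was mixed 1:1 with 100 mM buffers: glycylglycine at pH 3.0, 4.0, 5.0 and bistrispropane at pH 6.0, 6.5, 7.0, 7.5, 8.0. After 18 hours at room temperature, samples were centrifuged and polypeptide concentration measured by UPLC.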

[4] = molecular target: T3, human amylin receptor (membranes from Amylin 3(a)/CRE-luc cells) (Homo sapiens, UniProt O60896+P30988); assay: ASSAY (V) binding to the human amylin receptor (SPA, 125I-rat amylin);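 note: competition binding of cell membranes (35 ng/µL) mixed with SPA beads in 384-well plates at 40 µL total volume, read by scintillation counting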
T3 construct: expressed in transfected cells
T3 sequence (P30988 25-474): T2 sequence (P30988 25-474)
T3 sequence (O60896 24-148 partner): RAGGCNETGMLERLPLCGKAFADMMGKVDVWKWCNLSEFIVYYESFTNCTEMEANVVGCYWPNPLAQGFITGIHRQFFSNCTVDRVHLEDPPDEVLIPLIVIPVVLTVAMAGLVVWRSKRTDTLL

[5] = molecular target: T4, human calcitonin receptor (Homo sapiens, UniProt P30988); assay: ASSAY (VII) binding to the human calcitonin receptor (SPA, 125I-Calcitonin); settings: read-out: hCTR bind IC50;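 note: cell membranes (35 ng/µL) combined with SPA beads in 40 µL of pH 7.4 Hepes buffer, 384-well format, signal counted on a TopCounter instrument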
T4 construct: expressed in transfected cells
T4 sequence (P30988 25-474): T2 sequence (P30988 25-474)

Compound: CC[C@H](C)[C@H](NC(=O)[C@H](C)NC(=O)CNC(=O)[C@H](Cc1ccccc1)NC(=O)[C@H](CC(N)=O)NC(=O)[C@@H]1CCCN1C(=O)[C@H](CO)NC(=O)[C@H](CO)NC(=O)[C@H](Cc1c[nH]cn1)NC(=O)[C@H](CCCNC(=N)N)NC(=O)[C@H](CC(C)C)NC(=O)[C@H](Cc1ccccc1)NC(=O)[C@H](CCCNC(=N)N)NC(=O)[C@H](C)NC(=O)[C@H](CC(C)C)NC(=O)[C@H](CCCNC(=N)N)NC(=O)[C@H](CCC(N)=O)NC(=O)[C@@H](NC(=O)[C@H](C)NC(=O)[C@@H]1CSSC[C@H](NC(=O)[C@@H](N)CCCCNC(=O)COCCOCCNC(=O)CC[C@H](NC(=O)CCCCCCCCCCCCCCCCCCC(=O)O)C(=O)O)C(=O)N[C@@H](CC(N)=O)C(=O)N[C@@H]([C@@H](C)O)C(=O)N[C@@H](C)C(=O)N[C@@H]([C@@H](C)O)C(=O)N1)[C@@H](C)O)C(=O)N1CCC[C@H]1C(=O)N[C@@H](CO)C(=O)N[C@@H](CO)C(=O)N[C@H](C(=O)N[C@@H](CC(N)=O)C(=O)N[C@H](C(=O)NCC(=O)N[C@@H](CO)C(=O)N[C@@H](CC(N)=O)C(=O)N[C@H](C(=O)N[C@@H](Cc1ccc(O)cc1)C(N)=O)[C@@H](C)O)C(C)C)[C@@H](C)O [Example 82] (H-K([AEEA-γGlu-C20 diacid])CNTATCATQRLARFLRHSSPNFGAIPSSTNVGSNTY-NH2; disulfide 2-7; N-terminus assumed)
- Ratio hCT/hAmylin funct. ([1]; hCTR funct. EC50 divided by hAmylin-R funct. EC50): 59.2
- Ratio hCT/hAmylin funct. ([1]; hCTR funct. EC50 over hAmylin-R funct. EC50): 59.2
- EC50 ([1]; human amylin receptor functional potency, assay (II), read-out: hAmylin-R funct. EC50): 0.215 nM
- Ratio hCT/hAmylin funct. ([1]; human functional selectivity: hCTR funct. EC50 / hAmylin-R funct. EC50): 59.2
- EC50 [2]: 12.7 nM
- solubility at 18 h ([3]; bistrispropane buffer, pH 6.5, read-out: Solubility pH 6.5 Concentration): ≥ 200 µM
- solubility at 18 h ([3]; bistrispropane buffer, pH 7.5, read-out: Solubility pH 7.5 Concentration): ≥ 200 µM
- solubility at 18 h ([3]; bistrispropane buffer, pH 6.0, read-out: Solubility pH 6.0 Concentration): ≥ 200 µM
- solubility at 18 h ([3]; bistrispropane buffer, pH 7.0, read-out: Solubility pH 7.0 Concentration): ≥ 200 µM
- solubility at 18 h ([3]; bistrispropane buffer, pH 8.0, read-out: Solubility pH 8.0 Concentration): ≥ 200 µM
- solubility at 18 h ([3]; glycylglycine buffer, pH 3.0, read-out: Solubility pH 3.0 Concentration): ≥ 200 µM
- solubility at 18 h ([3]; glycylglycine buffer, pH 4.0, read-out: Solubility pH 4.0 Concentration): ≥ 200 µM
- solubility at 18 h ([3]; glycylglycine buffer, pH 5.0, read-out: Solubility pH 5.0 Concentration): ≥ 200 µM
- IC50 ([4]; Table 4, read-out: hAmylin-R bind IC50): 0.636 nM
- Ratio hCT/hAmylin binding ([4]; Table 5, selectivity, hCTR bind IC50 / hAmylin-R bind IC50): 139.6
- Ratio hCT/hAmylin binding ([4]; Table 5a, selectivity, hCTR bind IC50 / hAmylin-R bind IC50): 139.6
- Ratio hCT/hAmylin binding ([4]; Table 5b, selectivity, hCTR bind IC50 / hAmylin-R bind IC50): 139.6
- Ratio hCT/hAmylin binding ([4]; Table 5c, selectivity, hCTR bind IC50 / hAmylin-R bind IC50): 139.6
- Ratio hCT/hAmylin binding ([4]; Table 7, human binding selectivity, included for comparison): 139.6
- Ratio hCT/hAmylin binding ([4]; Table 7a (preferred compounds), human binding selectivity, included for comparison): 139.6
- Ratio hCT/hAmylin binding ([4]; ratio of human calcitonin receptor binding IC50 to human amylin receptor binding IC50): 139.6
- IC50 [5]: 88.8 nM
